# Source: US20130064870A1, “DRY POWDER INHALATION COMPOSITION” (SUN PHARMA ADVANCED RESEARCH COMPANY LIMITED, priority 2010, published 2013)
# Where “and” joins values, the source holds several entries; their conditions need not be identical. Equal entries are not always repeated.
# What was measured:
# Assay type in all cases: physicochemical
# [1] = Polymorphic purity by differential scanning calorimetry (DSC)
# Protocol: The phrase ‘substantially free of polymorph II’ means the micronized salmeterol xinafoate having not more than 5%, preferably not more than 3%, most preferably not more than 1% of polymorph II. The polymorphic purity of the salmeterol xinafoate can be determined by any known analytical method. According to the present invention, the polymorphic purity is determined by differential scanning calorimeter (DSC). The melting points of polymorph I and polymorph II are distinct and this method can determine the presence of two.
# In one embodiment, the salmeterol xinafoate was obtained by micronizing salmeterol xinafoate by milling in a jet mill with grinding parameters are as follows: grinding pressure: 1-5 bars, feed pressure: 2-10 bars, feed rate of 0.1-10 g/min, followed by subjecting the micronized material to a temperature of about 50° C. to 90° C., wherein the conditioning cycle is carried out for a time period o about 1 hour to 120 hours, preferably, 1 to 50 hours, most preferably, 20 hrs to 40 hrs. The polymorphic purity of the resultant salmeterol xinafoate so obtained was determined by recording the differential scanning calorimetry (See FIGS. 3-5).
# The results of the polymorphic purity were determined by differential scanning calorimeter and are tabulated below
# [2] = Mean particle size (D50) by laser light diffraction
# Protocol: The term ‘mean particle size’ as used herein means the particle size distribution of 50% of the population of the particles is less than the specified value. The particle size was measured using laser light diffraction method of particle size analysis.
# Tapped density = assay: Tapped density
# From the text: The term ‘tapped density’ as used herein means that density attained after mechanically tapping a receptacle containing the powder sample.
# [3] = In vitro cascade impactor test (fine particle fraction/dose, MMAD, GSD, deposition), USP <601>; details: applicant's patented device
# From the text: A cascade impactor is a multi-stage sampling device for determining the size distribution of a particulate aerosol. The aerosol flows into the impactor whereupon it impinges upon a sequence of solids discs. Each disc (which represents a ‘stage’) is contained within a flow chamber and each chamber is connected in a vertical arrangement to the previous and next chamber in the sequence. Larger particles impact on the first disc and are captured. The sampling velocity increases for each successive chamber/disc so that successively smaller particles are collected. The final stage is typically a fine filter septum. Up to 10 stages are often used which divides the size distribution into an equivalent number of portions. The present invention may use eight Stage Sampler which meets the guidelines of the various world pharmacopoeias (e.g., United States Pharmacopoeia Chapter 601 “USP <601>”) to characterize metered-dose (MDI) and dry powder-dose inhalers (DPI), nebulizers, nasal sprays and other pulmonary drugs or a Next generation impactor (NGI) by Anderson. The testing of inhalation drugs goes hand and hand with cascade impactors, the size ranges collected are considered inhalable (generally <10 μm), just as the inhalation drugs should consistently arrive within the respiratory system into their target regions, the various stages represent the cut-off sizes when deposition may occur within the lungs.
# In order to evaluate the effect of the dry powder inhalation composition itself, the composition was delivered via two different inhalation devices namely, a marketed inhalation device, namely, such as for example Rotahaler® and the applicant's own patented device. The % fine particle fraction and mass mean aerodynamic diameter was determined by testing in vitro in cascade impactor. The therapeutic efficacy of the composition of the present invention in terms of fine particle fraction was determined by a cascade impaction method official in the United States Pharmacopoeia, chapter <601>.
# The conditioned micronized salmeterol xinafoate having mean particle size of […] and a tapped density in the range of 0.20 g·cm^−3 to 0.45 g·cm^−3 was tested for fine particle fraction, mass mean aerodynamic diameter in a cascade impactor. The composition was delivered using the applicant's patented device as described in the description. The results of the in-vitro testing are provided below in Table 2:
# The composition of dry powder inhalation was subjected to fine particle dose determination. This was determined according to the procedure given in USP chapter <601>. The fine particle fraction was measured in terms of deposition at various stages as per the pharmacopoeial method. […]
# [4] = Polymorphic purity by differential scanning calorimetry (DSC); details: micronized, conditioned 80 hr at 40° C., 80 bar, CO2
# [5] = micronized, before conditioning at 40° C./80 bar CO2
# [6] = micronized, conditioned 40 hr at 85° C., air, no pressure
# [7] = micronized, not conditioned (FIG. 3)
# [8] = un-micronized salmeterol xinafoate (FIG. 2)
# [9] = batch D50 4.02, tapped density 0.25
# [10] = batch D50 5.99, tapped density 0.43
smiles,measurement,setting,value
OCc1cc(C(O)CNCCCCCCOCCCCc2ccccc2)ccc1O (stereo not drawn) [salmeterol xinafoate],% polymorph I,[1]; [5],44.18%
same,% polymorph II,[1]; [5],34.34%
same,% Salmeterol xinafoate Polymorph form I,"[1]; micronized, conditioned 24 hr at 85° C., air, no pressure",92.78%
same,% Salmeterol xinafoate Polymorph form I,[1]; [6],96.40%
same,% Salmeterol xinafoate Polymorph form II,[1]; [6],3.66% and 3.60%
same,% polymorph I,[1]; [7],69.20%
same,% polymorph II,[1]; [7],30.80%
same,% polymorph form I,[1]; [8],88.8%
same,% polymorph form II,[1]; [8],11.20%
same,Mean particle size D50,[2]; conditioned micronized batch with tapped density 0.25,about 4.02 μms
same,Mean particle size D50,"[2]; conditioned micronized batch with tapped density 0.25, listed as salmeterol xinofoate",4.02 μms
same,Mean particle size D50,[2]; conditioned micronized batch with tapped density 0.43,about 6 μms
same,Mean particle size D50,"[2]; conditioned micronized batch with tapped density 0.43, listed as salmeterol xinofoate",5.99 μms
same,Tapped density,Tapped density; conditioned micronized batch with D50 4.02,0.25 g/mL
same,Tapped density,Tapped density; conditioned micronized batch with D50 5.99,0.43 g/mL
same,% FPF Mean,[3]; [9],41.115%
same,GSD Mean,[3]; [9],1.747
same,% FPF Mean,[3]; [10],20.91%
same,GSD Mean,[3]; [10],1.734
same,% Salmeterol xinafoate Polymorph form I,[4],85.95%
same,% Salmeterol xinafoate Polymorph form II,[4],9.09%
